# Laboratory results published in ChEMBL document CHEMBL1201862, “PubChem BioAssay data set” (2004).
#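 Exposure lasted 48 hours, with cells grown in 96-well plates and compounds tested at five concentrations. The concentration for 50% growth inhibition is given as GI50.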 The source made the active and inactive calls. Rule as the data show it: active = GI50 up to about 1.1 µM and inactive = higher.
# Key:
# Assay in all cases: inhibition of tumour cell growth, NCI panel, 48 h
# DMS-114 = test system: DMS-114
# DMS-273 = test system: DMS-273
# KM-20L2 = test system: KM-20L2
# LXFL 529 = test system: LXFL 529
# M19-MEL = test system: M19-MEL
# SNB-78 = test system: SNB-78
# XF498 = test system: XF498
# RXF 631 = test system: RXF 631
# HOP-18 = test system: HOP-18
Structure (SMILES),GI50 (DMS-114),GI50 (DMS-273),GI50 (KM-20L2),GI50 (LXFL 529),GI50 (M19-MEL),GI50 (SNB-78),GI50 (XF498),GI50 (RXF 631),GI50 (HOP-18)
CCOC(=O)CSc1nnc(CSc2nc(-c3ccccc3)c(-c3ccccc3)[nH]2)n1-c1ccccc1,15.3 µM (inactive),> 100 µM (inactive),27.7 µM (inactive),21.1 µM (inactive),38.8 µM (inactive),27.9 µM (inactive),24.3 µM (inactive),,
N#C/C(=C\c1c(O)cc(O)cc1O)C(N)=O,> 100 µM (inactive),> 100 µM (inactive),> 100 µM (inactive),> 100 µM (inactive),,> 100 µM (inactive),> 100 µM (inactive),> 100 µM (inactive),
Oc1ccccc1/C=C/c1csnn1,> 84.1 µM (inactive),> 100 µM (inactive),> 100 µM (inactive),> 100 µM (inactive),> 100 µM (inactive),> 100 µM (inactive),> 100 µM (inactive),> 100 µM (inactive),> 100 µM (inactive)
COc1ccc([N+]2=NC(c3ccc([N+](=O)[O-])cc3)=NN(c3ccccc3)C2)cc1.[O-][Cl+3]([O-])([O-])[O-],40.6 µM (inactive),> 100 µM (inactive),58.9 µM (inactive),47.3 µM (inactive),,> 100 µM (inactive),53.6 µM (inactive),,
CO[C@H](c1ccccc1)[C@H](C)N(C)c1ccc2ccccc2c1C1=NC(C)(C)CO1,12.1 µM (inactive),19.2 µM (inactive),13.4 µM (inactive),14.9 µM (inactive),15.3 µM (inactive),,17.1 µM (inactive),15 µM (inactive),17.1 µM (inactive)
CCOC(=O)c1cnc2cc3cccccc3n2c1=O,35 µM (inactive),31.8 µM (inactive),> 100 µM (inactive),> 100 µM (inactive),,> 100 µM (inactive),,,
C[N+](C)(C)CC(=O)N/N=C(/Cc1nc2ccc([N+](=O)[O-])cc2nc1O)C(=O)Nc1cc(C(F)(F)F)ccc1Cl,75 µM (inactive),,> 100 µM (inactive),,> 100 µM (inactive),,,> 100 µM (inactive),
Cc1c(C(=O)CC(=O)C(=O)Nc2ccc(Cl)c(Cl)c2)[n+]([O-])c2ccccc2[n+]1[O-],16.9 µM (inactive),26 µM (inactive),52.5 µM (inactive),16.3 µM (inactive),15.7 µM (inactive),48.9 µM (inactive),,22.5 µM (inactive),
Cc1cc(Cl)cc2c1NC(=O)C2(O)CC(=O)c1ccc(Br)cc1 (stereo unspecified),34.8 µM (inactive),47.8 µM (inactive),> 91.4 µM (inactive),68.9 µM (inactive),22.5 µM (inactive),,30.2 µM (inactive),> 71.3 µM (inactive),
CCCC(C)C[C@@H](C)CC(C)/C=C(\C)c1oc(=O)c(C)c(O)c1C.CC[C@@H](C)C[C@@H](C)C[C@@H](C)/C=C(\C)c1oc(=O)c(C)c(O)c1C (stereo partly specified),16.8 µM (inactive),18.5 µM (inactive),12.6 µM (inactive),13.2 µM (inactive),10 µM (inactive),20.9 µM (inactive),,,
CC1(O)C(C)(O)C2(C)O[Te]3(OC12C)OC1(C)C(C)(O)C(C)(O)C1(C)O3 (stereo unspecified),20 µM (inactive),19.3 µM (inactive),,16 µM (inactive),22.1 µM (inactive),> 100 µM (inactive),> 100 µM (inactive),18.5 µM (inactive),
C/C(CC(=O)Nc1ccccc1C)=N/NS(=O)(=O)c1ccc(C)cc1,,> 100 µM (inactive),> 100 µM (inactive),> 100 µM (inactive),> 100 µM (inactive),> 100 µM (inactive),> 100 µM (inactive),> 100 µM (inactive),
Nc1nc(N)c2cc(CNc3ccc(C(=O)NC(CC(=O)O)C(=O)O)c(Cl)c3)ccc2n1 (stereo unspecified),< 0.01 µM (active),0.0552 µM (active),0.117 µM (active),,0.596 µM (active),56 µM (inactive),,,> 100 µM (inactive)
CCCCCCN(N)C(=O)CC#N,32.2 µM (inactive),> 100 µM (inactive),> 100 µM (inactive),> 100 µM (inactive),> 100 µM (inactive),> 100 µM (inactive),,98.9 µM (inactive),> 100 µM (inactive)
C/C(=N/N)c1ccc2[nH]c3c(C)cc([N+](=O)[O-])c(C)c3c2c1,9.89 µM (inactive),4.52 µM (inactive),,,11.3 µM (inactive),,11.4 µM (inactive),,10.7 µM (inactive)
O=C1CCCC2COc3ccc(O)c1c32 (stereo unspecified),> 100 µM (inactive),> 100 µM (inactive),> 100 µM (inactive),,> 100 µM (inactive),> 100 µM (inactive),,> 100 µM (inactive),
COCNC(=NC#N)NCOC,> 51.8 µM (inactive),> 47.1 µM (inactive),> 76 µM (inactive),> 100 µM (inactive),> 59.8 µM (inactive),,> 100 µM (inactive),> 100 µM (inactive),> 100 µM (inactive)
O=C(CC1(O)C(=O)Nc2c(Cl)cc(Cl)cc21)c1cccc([N+](=O)[O-])c1 (stereo unspecified),21.5 µM (inactive),39.4 µM (inactive),52.1 µM (inactive),15.1 µM (inactive),5.14 µM (inactive),41.5 µM (inactive),20.7 µM (inactive),24.8 µM (inactive),32.3 µM (inactive)
Cc1cc(O)c2c3c1C(=O)Oc1c(CO)c(O)c(C(=O)O)c(c1O3)C=NN=Cc1c3c(c(CO)c(O)c1C(=O)O)OC(=O)c1c(C)cc(O)c(c1O3)C=NN=C2,51.5 µM (inactive),,> 100 µM (inactive),> 100 µM (inactive),> 100 µM (inactive),> 100 µM (inactive),> 100 µM (inactive),,> 100 µM (inactive)
O=C1CCC2(CC1)SCCCS2,> 100 µM (inactive),> 100 µM (inactive),> 100 µM (inactive),> 100 µM (inactive),> 100 µM (inactive),,> 100 µM (inactive),,
Cc1no[n+]([O-])c1/C=N/NS(=O)(=O)c1ccccc1,> 100 µM (inactive),,> 100 µM (inactive),> 100 µM (inactive),> 100 µM (inactive),,,,> 100 µM (inactive)
O/N=C1/C(=C/c2ccc(Cl)c(Cl)c2)CCCC1C(NO)c1ccc(Cl)c(Cl)c1 (stereo unspecified),17.9 µM (inactive),18.8 µM (inactive),17.9 µM (inactive),15.7 µM (inactive),18.2 µM (inactive),18.7 µM (inactive),16.3 µM (inactive),,16.3 µM (inactive)
Cc1cc(Cl)ccc1NC(=O)/C(=N\NC(C)(C)C)C(C#N)c1nc(-c2ccc([N+](=O)[O-])cc2)cs1 (stereo unspecified),> 100 µM (inactive),> 100 µM (inactive),> 100 µM (inactive),> 100 µM (inactive),> 100 µM (inactive),> 100 µM (inactive),> 100 µM (inactive),> 100 µM (inactive),> 100 µM (inactive)
COC(=O)NC1C(C)OC(OC2C/C=C(/C)C3C=CC4C(OC5CC(OC6CC(O)C(OC7CC(O)C(OC)C(C)O7)C(C)O6)C(O)C(C)O5)C(C)CC(C)C4C3(C)C(=O)C3=C(O)C4(CC(C)C(CO)=CC4/C=C\2C)OC3=O)CC1(C)[N+](=O)[O-] (stereo unspecified),2.5 µM (inactive),11.4 µM (inactive),17.1 µM (inactive),2.7 µM (inactive),4.43 µM (inactive),5.47 µM (inactive),10.6 µM (inactive),21 µM (inactive),15.1 µM (inactive)
O=c1c(-c2cccc3ccccc23)c(-c2cccc3ccccc23)c1=O,2.1 µM (inactive),1.71 µM (inactive),0.379 µM (active),3.05 µM (inactive),3.07 µM (inactive),1.95 µM (inactive),2.27 µM (inactive),,39.8 µM (inactive)
Cn1ccnc1CCc1c(Cl)cccc1Cl,> 100 µM (inactive),> 100 µM (inactive),> 100 µM (inactive),> 100 µM (inactive),> 100 µM (inactive),> 100 µM (inactive),,,51.4 µM (inactive)
